In ChEMBL document CHEMBL4765457, “Targeting dual tolerant regions of binding pocket: Discovery of novel morpholine-substituted diarylpyrimidines as potent HIV-1 NNRTIs with significantly improved water solubility” (Eur J Med Chem, 2020):
≈ marks a conversion by molar mass, not a printed value.

Columns and labels:
[1] = Resistance index, ratio of EC50 for antiviral activity against HIV1 expressing RT F227L/V106A mutant infected in human MT4 cells to EC50 for antiviral activity against HIV1 3B infected in human MT4 cells; type: functional
[2] = Resistance index, ratio of EC50 for antiviral activity against HIV1 expressing RT Y188L mutant infected in human MT4 cells to EC50 for antiviral activity against HIV1 3B infected in human MT4 cells; type: functional
[3] = Resistance index, ratio of EC50 for antiviral activity against HIV1 expressing RT L100I mutant infected in human MT4 cells to EC50 for antiviral activity against HIV1 3B infected in human MT4 cells; type: functional
[4] = tested on: Human immunodeficiency virus 1; test: Antiviral activity against HIV1 harboring RT F227L/V106Amutant infected in human MT4 cells assessed as inhibition of virus-induced cytopathic effect incubated for 5 days by MTT assay; type: functional, organism-based; conditions: Human immunodeficiency virus 1, MT4, 120 h
[5] = Resistance index, ratio of EC50 for antiviral activity against HIV1 expressing RT Y181C mutant infected in human MT4 cells to EC50 for antiviral activity against HIV1 3B infected in human MT4 cells; type: functional
[6] = Solubility of compound in water at pH 2; type: physicochemical
[7] = Solubility of compound in water at pH 7.4; type: physicochemical
[8] = tested on: Human immunodeficiency virus 1; test: Antiviral activity against HIV1 harboring RT K103N mutant infected in human MT4 cells assessed as inhibition of virus-induced cytopathic effect incubated for 5 days by MTT assay; type: functional, organism-based; conditions: Human immunodeficiency virus 1, MT4, 120 h
[9] = Cytotoxicity against human MT4 cells assessed as reduction in cell viability incubated for 5 days by MTT assay; type: cell-based; conditions: time 5 day
[10] = Selectivity index, ratio of CC50 for human MT4 cells to EC50 for antiviral activity against HIV1 RES056 infected in human MT4 cells; type: toxicity, cell-based; conditions: read-out: Ratio CC50/EC50
[11] = tested on: Human immunodeficiency virus 1; test: Antiviral activity against HIV1 RES056 infected in human MT4 cells assessed as inhibition of virus-induced cytopathic effect incubated for 5 days by MTT assay; type: functional, organism-based; conditions: Human immunodeficiency virus 1, RES056, MT4, 120 h
[12] = tested on: Human immunodeficiency virus 1; test: Antiviral activity against HIV1 harboring RT Y181C mutant infected in human MT4 cells assessed as inhibition of virus-induced cytopathic effect incubated for 5 days by MTT assay; type: functional, organism-based; conditions: Human immunodeficiency virus 1, MT4, 120 h
[13] = tested on: Human immunodeficiency virus 1; test: Antiviral activity against HIV1 3B infected in human MT4 cells assessed as virus-induced cytopathic effect incubated for 5 days by MTT assay; type: functional, organism-based; conditions: Human immunodeficiency virus 1, 3B, MT4, 120 h
[14] = Resistance index, ratio of EC50 for antiviral activity against HIV1 expressing RT E138K mutant infected in human MT4 cells to EC50 for antiviral activity against HIV1 3B infected in human MT4 cells; type: functional
[15] = Resistance index, ratio of EC50 for antiviral activity against HIV1 expressing RT K103N mutant infected in human MT4 cells to EC50 for antiviral activity against HIV1 3B infected in human MT4 cells; type: functional
[16] = Selectivity index, ratio of CC50 for human MT4 cells to EC50 for antiviral activity against HIV1 3B infected in human MT4 cells; type: toxicity, cell-based; conditions: read-out: Ratio CC50/EC50
[17] = Inhibition of HIV1 reverse transcriptase assessed as reduction in biotin-dUTP incorporation into template preincubated for 1 hr followed by template/primer and dNTP addition and measured after 1 hr by ELISA; parameters: species or system Human immunodeficiency virus 1
[18] = tested on: Human immunodeficiency virus 1; test: Antiviral activity against HIV1 harboring RT E138K mutant infected in human MT4 cells assessed as inhibition of virus-induced cytopathic effect incubated for 5 days by MTT assay; type: functional, organism-based; conditions: Human immunodeficiency virus 1, MT4, 120 h
[19] = tested on: Human immunodeficiency virus 1; test: Antiviral activity against HIV1 harboring RT L100I mutant infected in human MT4 cells assessed as inhibition of virus-induced cytopathic effect incubated for 5 days by MTT assay; type: functional, organism-based; conditions: Human immunodeficiency virus 1, MT4, 120 h
[20] = Solubility of compound in water at pH 7; type: physicochemical
[21] = tested on: Human immunodeficiency virus 1; test: Antiviral activity against HIV1 harboring RT Y188L mutant infected in human MT4 cells assessed as inhibition of virus-induced cytopathic effect incubated for 5 days by MTT assay; type: functional, organism-based; conditions: Human immunodeficiency virus 1, MT4, 120 h
[22] = tested on: Human immunodeficiency virus 1; test: Potency index, ratio of zidovudine EC50 to test compound EC50 for antiviral activity against HIV1 3B infected in human MT4 cells; type: functional
[23] = tested on: Human immunodeficiency virus 1; test: Potency index, ratio of lamivudine EC50 to test compound EC50 for antiviral activity against HIV1 3B infected in human MT4 cells; type: functional

Row | Compound | Ratio EC50 [1] | Ratio EC50 [2] | Ratio EC50 [3] | EC50 [4] | Ratio EC50 [5] | solubility [6] | solubility [7] | EC50 [8] | CC50 at 120 h [9] | selectivity ratio [10] | EC50 [11] | EC50 [12] | EC50 [13] | Ratio EC50 [14] | Ratio EC50 [15] | selectivity ratio [16] | IC50 [17] | EC50 [18] | EC50 [19] | EC50 [21] | further results
1 | Cc1cc(C#N)cc(C)c1Oc1nc(NC2CCN(CC(=O)N3CCOCC3)CC2)nc2sccc12 | 168 | 87.5 | 44.8 | 13.8 µM | 44.3 | 228 µg/mL (≈ 450 µM) | 27.6 µg/mL (≈ 54.5 µM) | 1.62 µM | 36.3 µM | < 1 | > 36.3 µM | 3.64 µM | 0.082 µM | 4.1 | 19.8 | 442 | 1.49 µM | 0.334 µM | 3.67 µM | 7.18 µM | solubility [20]: 34.2 µg/mL (≈ 67.5 µM)
2 | Cc1cc(C#N)cc(C)c1Oc1nc(Nc2ccc(C#N)cc2)nc(N)c1Br [ETRAVIRINE] | 6.3 | 4.9 | 1.9 | 0.018 µM | 4.9 |  |  | 0.003 µM | > 4.59 µM | > 122 | 0.038 µM | 0.014 µM |  | 2.6 | 1 | > 1640 | 0.059 µM | 0.007 µM | 0.005 µM | 0.014 µM | 
3 | Cc1cc(C#N)cc(C)c1Oc1nc(NC2CCN(CCN3CCOCC3)CC2)nc2sccc12 | 285.5 | 690.6 | 224.5 | 18.7 µM | 105.5 | 243 µg/mL (≈ 493 µM) | 19.7 µg/mL (≈ 40 µM) | 0.61 µM | 37.9 µM | < 1 | > 37.9 µM | 6.9 µM | 0.065 µM | 9 | 9.3 | 579 | 2.36 µM | 0.586 µM | 14.7 µM | 45.2 µM | solubility [20]: 29.3 µg/mL (≈ 59.5 µM)
4 | Cc1cc(C#N)cc(C)c1Oc1nc(NC2CCN(CC(=O)N3CCOCC3)CC2)nc2c1SCC2 | >662.9 | 89.4 | 105 | > 38.6 µM | 93.5 | 248 µg/mL (≈ 488 µM) | 29.1 µg/mL (≈ 57.2 µM) | 1.28 µM | 38.6 µM | < 1 | > 38.6 µM | 5.45 µM | 0.058 µM | 22.6 | 21.9 | 663 | 3.37 µM | 1.31 µM | 6.12 µM | 5.21 µM | Ratio EC50 [22]: 2.8; solubility [20]: 35.2 µg/mL (≈ 69.2 µM); Ratio EC50 [23]: <=87
5 | Cc1cc(C#N)cc(C)c1Oc1nc(NC2CCN(CC(=O)N3CCOCC3)CC2)nc2c1CCC2 | 256 | 61.4 | 150.4 | 27 µM | 100.8 |  |  | 2.54 µM | 73.5 µM | < 1 | > 73.5 µM | 10.6 µM | 0.106 µM | 10.6 | 24.1 | 696 |  | 1.12 µM | 15.9 µM | 6.48 µM | 
6 | COc1cc2nc(NC3CCN(CC(=O)N4CCOCC4)CC3)nc(Oc3c(C)cc(C#N)cc3C)c2cc1OC | 0.4 | >96.8 | >96.8 | 0.974 µM | >96.8 |  |  | 24.8 µM | 211 µM | < 1 | > 211 µM | > 211 µM | 2.18 µM | >96.8 | 11.4 | 97 |  | > 211 µM | > 211 µM | > 211 µM | 
7 | Cc1cc(C#N)cc(C)c1Oc1nc(NC2CCN(CC(=O)N3CCOCC3)CC2)nc2c1CSC2 | 267.3 | 48.4 | 158.7 | 41.2 µM | 86.9 |  |  | 3.73 µM | 64.6 µM | < 1 | > 64.6 µM | 13.4 µM | 0.154 µM | 4.1 | 24.2 | 420 |  | 0.627 µM | 24.4 µM | 7.45 µM | 
8 | Cc1cc(C#N)cc(C)c1Oc1nc(NC2CCN(CC(=O)N3CCOCC3)CC2)nc2scnc12 | 256.1 | 86 | 107.7 | 35.9 µM | 21.8 |  |  | 3.74 µM | 129 µM | < 1 | > 129 µM | 3.06 µM | 0.14 µM | 5 | 26.7 | 919 |  | 0.703 µM | 15.1 µM | 12.1 µM | 
9 | Cc1cc(C#N)cc(C)c1Oc1nc(NC2CCN(CCN3CCOCC3)CC2)nc2ccsc12 | 81.9 | 107.9 | 99.9 | 7.14 µM | 95.8 | 207 µg/mL (≈ 420 µM) | 15.6 µg/mL (≈ 31.7 µM) | 1.04 µM | 36.8 µM | < 1 | > 36.8 µM | 8.35 µM | 0.087 µM | 5 | 11.9 | 423 | 2.53 µM | 0.437 µM | 8.7 µM | 9.39 µM | solubility [20]: 24.4 µg/mL (≈ 49.5 µM)
